Assay results reported in article PMC6855212, “Antibacterial activity of synthetic 1,3‐bis(aryloxy)propan‐2‐amines against Gram‐positive bacteria” (MicrobiologyOpen, 2019).
In brackets after ≈: the same amount, converted by molar mass. Several values for one entry are separate records, joined by “and”; a condition that tells them apart may be missing. Equal values may be shown once. Read-outs that look alike come from different tables or passages of the source.

Columns and labels:
MRSA Strain 5749 [1] = assay: MIC, broth microdilution; format: cell-based; conditions: Staphylococcus aureus, clinical strain, read-out: MIC MRSA Strain 5749
Description: (§1) The antibacterial activity of the compounds was evaluated using the broth microdilution method in 96‐well microplates according to the Clinical and Laboratory Standards Institute protocol (CLSI, 2017). First, synthetic compounds were diluted in Mueller Hinton broth (MHB; Oxoid, Thermo Scientific, UK) to concentrations ranging from 20 to 2.5 μg/ml. The same volume of a bacterial suspension containing 10^5 CFU/ml was added to each of the previous solutions, resulting in final compound concentrations from 10 to 1.25 μg/ml. […] All conditions were tested in triplicate and the results shown are representative of three independent assays.

MRSA Strain 5912 [2] = assay: MIC, broth microdilution; format: cell-based; conditions: Staphylococcus aureus, clinical strain, read-out: MIC MRSA Strain 5912
Description: as §1

MRSA Strain 6154 [3] = assay: MIC, broth microdilution; format: cell-based; conditions: Staphylococcus aureus, clinical strain, read-out: MIC MRSA Strain 6154
Description: as §1

MRSA Strain 6613 [4] = assay: MIC, broth microdilution; format: cell-based; conditions: Staphylococcus aureus, clinical strain, read-out: MIC MRSA Strain 6613
Description: as §1

[5] = tested on: Staphylococcus aureus ATCC 29212; assay: MIC, broth microdilution; format: cell-based; conditions: for MIC: Staphylococcus aureus, ATCC29212; for Antibacterial activity in initial screening, S. aureus: concentration of 10 μg/ml
Description: as §1

[6] = tested on: Streptococcus pyogenes ATCC 19615; assay: MIC, broth microdilution; format: cell-based; conditions: for MIC: Streptococcus pyogenes, ATCC19615; for Antibacterial activity in initial screening, S. pyogenes: concentration of 10 μg/ml
Description: as §1

MRSA Strain 5749 [7] = assay: MBC, plating of wells without growth; format: cell-based; conditions: Staphylococcus aureus
Description: (§2) After incubation at 35°C for 24 hr, the colonies were counted and the percentage of inhibition was calculated. MBC is defined as the lowest compound's concentration that inhibits at least 99.9% of the bacterial cell count compared to nontreated viability control (Clinical and Laboratory Standards Institute, 1999).

MRSA Strain 5912 [8] = assay: MBC, plating of wells without growth; format: cell-based; conditions: Staphylococcus aureus
Description: as §2

MRSA Strain 6154 [9] = assay: MBC, plating of wells without growth; format: cell-based; conditions: Staphylococcus aureus
Description: as §2

MRSA Strain 6613 [10] = assay: MBC, plating of wells without growth; format: cell-based; conditions: Staphylococcus aureus
Description: as §2

S. aureus ATCC 29212 = assay: MBC, plating of wells without growth; format: cell-based; conditions: Staphylococcus aureus, ATCC29212; at least 99.9% inhibition of cell count
Description: as §2

S. pyogenes ATCC 19615 = assay: MBC, plating of wells without growth; format: cell-based; conditions: Streptococcus pyogenes, ATCC19615; at least 99.9% inhibition of cell count
Description: as §2

[11] = Cytotoxicity, MTT reduction assay; format: cell-based; conditions: African green monkey, 48 hr
Description: (§3) The cytotoxicity of active compounds to mammalian cells was assessed using the MTT reduction assay (Mosmann, 1983). Vero and BSC‐40 cells were seeded in 96‐well plates (8 × 10^4 cells per well) and incubated at 37°C and 5% CO2 atmosphere. After 24 hr of incubation, 200 μL of fresh medium containing a serial dilution of compounds (10–1.25 μg/ml) were added to the plates. After 48 hr of incubation in the same conditions, 100 μL of MTT solution in MEM or DMEM (5 mg/ml) was added to each well and incubated for 3 hr at 37°C and 5% CO2 atmosphere. The medium was removed and 100 μL of DMSO was used to solubilize formazan crystals. Absorbance at 570 nm of each well was read using a spectrophotometer (VersaMax, Molecular Devices).

MRSA strains [12] = assay: MIC, broth microdilution, MRSA strains taken together; format: cell-based; conditions: Staphylococcus aureus; over the six MRSA strains (CPD18: four out of six); read-out: MIC against MRSA strains
Description: as §1

MRSA strains [13] = assay: MBC, MRSA strains taken together; format: cell-based, Staphylococcus aureus; conditions: concentrations tested (up to 10 μg/ml)
Description: as §2

[14] = tested on: Gram‐positive bacteria (E. faecalis, S. aureus and S. pyogenes); assay: MIC, broth microdilution, Gram‐positive bacteria taken together; format: cell-based; conditions: Staphylococcus aureus; over different bacterial strains, including MRSA where stated; read-out: MIC against Gram‐positive bacteria, summary
Description: as §1

[15] = tested on: Enterococcus faecalis ATCC 29213; assay: MIC, broth microdilution; format: cell-based; conditions: for MIC: Enterococcus faecalis, ATCC29213; for Antibacterial activity in initial screening, E. faecalis: concentration of 10 μg/ml
Description: as §1

MRSA ATCC 43300 [16] = assay: MIC, broth microdilution; format: cell-based; conditions: Staphylococcus aureus; — = no activity up to 10 μg/ml; read-out: MIC MRSA ATCC 43300
Description: as §1

MRSA Strain 6100 [17] = assay: MIC, broth microdilution; format: cell-based; conditions: Staphylococcus aureus, clinical strain, — = no activity up to 10 μg/ml, read-out: MIC MRSA Strain 6100
Description: as §1

E. faecalis ATCC 29213 = assay: MBC, plating of wells without growth; format: cell-based; conditions: Enterococcus faecalis, ATCC29213; at least 99.9% inhibition of cell count
Description: as §2

MRSA ATCC 43300 [18] = assay: MBC, plating of wells without growth; format: cell-based; conditions: Staphylococcus aureus
Description: as §2

MRSA Strain 6100 [19] = assay: MBC, plating of wells without growth; format: cell-based; conditions: Staphylococcus aureus
Description: as §2

BSC‐40 cells = assay: Cytotoxicity, MTT reduction assay; format: cell-based; conditions: BSC‐40; bacterial strain not stated
Description: as §3

Vero cells = assay: Cytotoxicity, MTT reduction assay; format: cell-based; conditions: bacterial strain not stated
Description: as §3

[20] = 24 hr, 35°C, read-out: MIC Staphylococcus aureus ATCC 29212
[21] = read-out: MIC against S. aureus
[22] = 24 hr, 35°C, read-out: MIC Streptococcus pyogenes ATCC 19615
[23] = read-out: MIC against S. pyogenes
[24] = BSC-40 cells, BSC‐40, MTT, read-out: CC50
[25] = BSC-40 cells, BSC‐40, MTT, read-out: CC50 ± SD
[26] = Vero cells, MTT, read-out: CC50
[27] = Vero cells, MTT, read-out: CC50 ± SD
[28] = 24 hr, 35°C, — = no activity up to 10 μg/ml, read-out: MIC Enterococcus faecalis ATCC 29213
[29] = read-out: MIC against E. faecalis

Row | Compound | MIC (MRSA Strain 5749 [1]) [µM] | MIC (MRSA Strain 5912 [2]) [µM] | MIC (MRSA Strain 6154 [3]) [µM] | MIC (MRSA Strain 6613 [4]) [µM] | MIC [5, 20] [µM] | MIC [5, 21] [µg/mL] | Antibacterial activity in initial screening, S. aureus [5] | MIC [6, 22] [µM] | MIC [6, 23] [µg/mL] | Antibacterial activity in initial screening, S. pyogenes [6] | MBC (MRSA Strain 5749 [7]) [µM] | MBC (MRSA Strain 5912 [8]) [µM] | MBC (MRSA Strain 6154 [9]) [µM] | MBC (MRSA Strain 6613 [10]) [µM] | MBC (S. aureus ATCC 29212) [µM] | MBC (S. pyogenes ATCC 19615) [µM] | CC50 at 48 h [11, 25] [µM] | CC50 at 48 h [11, 26] [µg/mL] | CC50 at 48 h [11, 27] [µM] | MIC (MRSA strains [12]) | other results
1 | NC(COc1ccc(Cl)cc1)COc1ccc(Cl)cc1 [CPD18] | 28.7 (≈ 8.95 µg/mL) | 28.7 (≈ 8.95 µg/mL) | 28.7 (≈ 8.95 µg/mL) | 28.7 (≈ 8.95 µg/mL) | 28.7 | 10 | showed activity | 28.7 | 10 | showed activity | > 28.7 | > 28.7 | > 28.7 | > 28.7 | > 28.7 | > 28.7 | 16.4 ± 0.52 | 5.99 ± 0.09 | 17.2 ± 0.26 | 10 µg/mL and 28.7 µM | CC50 at 48 h [11, 24]: 5.73 ± 0.18 µg/mL; Bactericidal activity against MRSA strains (MRSA strains [13]): no bactericidal activity was observed; MIC [14]: 10 µg/mL and 28.7 µM
2 | NC(COc1cccc2ccccc12)COc1cccc2ccccc12 [CPD20] | 6.58 (≈ 2.26 µg/mL) | 6.58 (≈ 2.26 µg/mL) | 6.58 (≈ 2.26 µg/mL) | 6.58 (≈ 2.26 µg/mL) | 6.58 | 2.5 | inhibited the growth | 6.58 | 2.5 | inhibited the growth | 6.58 (≈ 2.26 µg/mL) | 6.58 (≈ 2.26 µg/mL) | 26.3 (≈ 9.04 µg/mL) | 6.58 (≈ 2.26 µg/mL) | 26.3 (≈ 9.04 µg/mL) | 6.58 (≈ 2.26 µg/mL) | 6.58 ± 1.97 | 3.79 ± 0.6 | 9.98 ± 1.58 | 2.5 µg/mL and 6.58 µM | MIC [15, 28]: 13.2 µM; MIC [15, 29]: 5 µg/mL; Antibacterial activity in initial screening, E. faecalis [15]: inhibited the growth; MIC (MRSA ATCC 43300 [16]): 6.58 µM (≈ 2.26 µg/mL); MIC (MRSA Strain 6100 [17]): 6.58 µM (≈ 2.26 µg/mL); MBC (E. faecalis ATCC 29213): 26.3 µM (≈ 9.04 µg/mL); MBC (MRSA ATCC 43300 [18]): 13.2 µM (≈ 4.52 µg/mL); MBC (MRSA Strain 6100 [19]): 6.58 µM (≈ 2.26 µg/mL); CC50 at 48 h [11, 24]: 2.5 ± 0.75 µg/mL; MIC [14]: 2.5 µg/mL to 5 µg/mL and 6.58 µM to 13.2 µM
3 | Cl.NC(COc1ccc(Cl)c(Cl)c1)COc1ccc(Cl)c(Cl)c1 [CPD22, 1,3‐Bis(3,4‐dichlorophenoxy)propan‐2‐aminium chloride] | 5.99 | 5.99 | 5.99 | 12 | 12 | 5 | inhibited the growth | 5.99 | 2.5 | inhibited the growth | 5.99 | 5.99 | > 23.9 | 12 | 12 | 23.9 | 10.6 ± 3.16 | 5.47 ± 1.89 | 13.1 ± 4.53 | 2.5 µg/mL to 5 µg/mL and 5.99 µM to 12 µM | MIC [15, 28]: 12 µM; MIC [15, 29]: 5 µg/mL; Antibacterial activity in initial screening, E. faecalis [15]: inhibited the growth; MIC (MRSA ATCC 43300 [16]): 12 µM; MIC (MRSA Strain 6100 [17]): 5.99 µM; MBC (E. faecalis ATCC 29213): > 23.9 µM; MBC (MRSA ATCC 43300 [18]): 12 µM; MBC (MRSA Strain 6100 [19]): 23.9 µM; Selective Index (SI), higher value (BSC‐40 cells): 1.77; Selective Index (SI), higher value (Vero cells): 2.19; MIC [14]: 2.5 µg/mL to 5 µg/mL and 5.99 µM to 12 µM; melting point: 224.1 to 225.6 °C
